Measured values as given in patent publication US20020076722A1, “Antibiotic hypersusceptibility mutations in bacteria” (priority 2000, published 2002).

Experiments:
[1] = test system: wild-type Acinetobacter; experiment: DNA release by hexadecane in wild-type Acinetobacter; format: cell-based
Protocol: (§1) FIG. 6—Gene organization in the alkM model strain and induction of DNA release before and after SDR selection. Transformants 1 and 2 and the derivative of the transformant 1 after four cycles of SDR selection were grown to OD600 0.3 and a drop of hexadecane was added to 5 ml of the culture. After overnight incubation (induction of the alkM expression occurs only in stationary phase (Ratajczak et al., J. Bacteriol. 180(22):5822-7, 1998)) the released DNA was purified from the medium as described in the text.
(§2) A model strain of Acinetobacter with the lysis cassette of λ inserted under the control of a antibiotic-inducible promoter was constructed and determined to release DNA in response to the antibiotic inducer. A promoter of the alkM gene of Acinetobacter, which encodes an enzyme involved in degradation of hydrocarbons and whose expression is activated dramatically by hexadecane, was chosen (Ratajczak et al., 1998). The promoter-less lysis cassette was PCR-amplified from the DNA of λ. The 5′-end of the gene of S-protein, which is the limiting factor in lysis (Young, 1992), was modified by an appropriately designed PCR primer. In particular, the alternative start codon from which an inhibitory variant of S is translated has been eliminated by mutation. […]

[2] = test system: alkM model strain (lysis cassette under alkM promoter); experiment: Induction of DNA release by hexadecane in the alkM model strain; format: cell-based, Acinetobacter
Protocol: as §1, §2

[3] = test system: Acinetobacter library cells; experiment: Inhibition of growth of Acinetobacter library cells by ampicillin in liquid culture; format: cell-based, Acinetobacter sp. strain BD413
Protocol: Clones hypersusceptible to the β-lactam drug ampicillin, an antibiotic that is well known to cause bacterial lysis, were selected. As compared to E. coli, Acinetobacter is remarkably resistant to ampicillin.
To purify the DNA released, bacterial cells from the insertional library of Acinetobacter were diluted in LB medium to OD600 0.025 and allowed to grow at 37° C. to OD600 0.1. Ampicillin was added to 5 ml aliquots of the culture at a variety of concentrations. After two hours, the cells were removed by centrifugation. DNA released into the medium in response to incubation with ampicillin was purified using a variation of the Wizard DNA purification protocols of Promega. Specifically, three grams of guanidine-HCl was dissolved in 5 ml of the culture medium and 1 ml of the slurry of DNA-binding silica resin (Promega Wizard DNA purification resin) was added. After a 5 min incubation with shaking, the resin was collected in a mini-column by passing the slurry through it with a syringe. […]
Cells of a frozen insertional library of Acinetobacter were diluted in LB medium to OD600 0.025 and allowed to grow at 37° C. to OD600 0.1, at which point ampicillin was added to 5 ml aliquots of the culture at the indicated concentrations. Two hours later the density of the cultures was measured, cells were removed by centrifugation and the DNA released into the medium was purified. […]

[4] = test system: Acinetobacter library cells and SDR-selected clones; experiment: Growth of clones replica-plated on LB-agar plates with different concentrations of ampicillin; format: cell-based, Acinetobacter sp.
Protocol: Each individual clone was inoculated into a well of a 96-well plate. When the cultures reached the density of approx. OD600 0.2-0.5, they were transferred by using a 6×8-pin replicator onto LB-agar plates containing kanamycin (25 μg/ml) and different concentrations of ampicillin. Plates were digitally scanned after 24 hr of incubation at 37° C. (FIG. 3). The spots indicated as Library are identical cultures from the original library and serve here as controls.
The computer scans of different plates were combined in a single set. This study has been conducted essentially as described in Example 2.

[5] = test system: LIT1 strain; experiment: Release of DNA and growth of the LIT1 lysis reporter strain with translational inhibitors; format: cell-based, Acinetobacter; conditions: LIT1 clone; for DNA released in presence of antibiotic versus absence, normalized per ml of culture: 2 h (chloramphenicol) or 1.5 h (erythromycin, tetracycline)
Protocol: The LIT1 cells were inoculated in LB at OD600 0.05 and grown at 37° C. to OD600 0.2 at which time antibiotics were added at indicated concentrations. Two (chloramphenicol) or 1.5 (erythromycin and tetracycline) hours later the OD600 of the cultures were measured, cells were spun down and the released DNA was purified as described above. The amounts of DNA in μg normalized per milliliter of culture was determined fluorimetrically by adding an aliquot of the isolated DNA to the solution of ethidium bromide (0.5 μg/ml) and measuring the fluorescence at λex 540 and λem 580 nm (FIG. 7). The values obtained were compared with the calibration curve for known amounts of DNA.

[6] = test system: E. Coli; conditions: bulgecin as known inhibitor of Slt; cited from earlier work

Molecule: CCCCCCCCCCCCCCCC [hexadecane]
- effect on release of DNA [1]: no effect
- effect on optical density of the culture ([2]; model strain before SDR selection): did not cause significant reduction
- effect on amount of DNA released ([2]; transformants, drop of hexadecane in 5 ml culture, overnight): significant increase

Molecule: CC1(C)S[C@@H]2[C@H](NC(=O)[C@H](N)c3ccccc3)C(=O)N2[C@H]1C(=O)O [ampicillin]
- growth inhibition at the concentrations used for SDR selection ([3]; 1, 3 and 9 μg/ml ampicillin, little lysis): only moderate growth inhibition
- ampicillin concentration at which slow growth was still observed ([3]; liquid culture, LB, 37° C., two hours): 729 µg/mL
- ampicillin concentration on plates at which library cells were still growing ([4]; original library cells, LB-agar, 24 hr): 32 µg/mL
- ampicillin concentration at which clones could not grow ([4]; seventeen of 30 tested clones selected with 3 μg/ml of ampicillin): 1 µg/mL

Molecule: CC[C@H]1OC(=O)[C@H](C)[C@@H](O[C@H]2C[C@@](C)(OC)[C@@H](O)[C@H](C)O2)[C@H](C)[C@@H](O[C@@H]2O[C@H](C)C[C@H](N(C)C)[C@H]2O)[C@](C)(O)C[C@@H](C)C(=O)[C@H](C)[C@@H](O)[C@]1(C)O [erythromycin]
- increase of released DNA normalized per number of cells [5]: approximately ten-fold
- DNA released in presence of antibiotic versus absence, normalized per ml of culture [5]: four-fold

Molecule: CN(C)[C@@H]1C(O)=C(C(N)=O)C(=O)[C@@]2(O)C(O)=C3C(=O)c4c(O)cccc4[C@@](C)(O)[C@H]3C[C@@H]12 [tetracycline]
- increase of released DNA normalized per number of cells [5]: ~35 fold

Molecule: O=C(N[C@H](CO)[C@H](O)c1ccc([N+](=O)[O-])cc1)C(Cl)Cl [chloramphenicol]
- increase of released DNA normalized per number of cells [5]: approximately ten-fold
- DNA released in presence of antibiotic versus absence, normalized per ml of culture [5]: four times more

Molecule: bulgecin
- effect on sensitivity to the β-lactam antibiotic cefoxitin [6]: increase the sensitivity
